Reference: ChEMBL document CHEMBL1201862, “PubChem BioAssay data set” (2004)
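How tested: cells in 96-well plates exposed to compound for 48 hours at five concentrations. Here, GI50 denotes the concentration required for 50% inhibition of growth.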 Activity calls are given as the source filed them. Rule as the data show it: active = GI50 up to about 1.1 µM and inactive = higher.

Experiments:
Assay in all cases: NCI tumour cell line growth inhibition, 48 h
DMS-273 = test system: DMS-273
RPMI-8226 = test system: RPMI-8226
HOP-62 = test system: HOP-62
OVCAR-4 = test system: OVCAR-4
NCI/ADR-RES = test system: NCI/ADR-RES
RXF 393 = test system: RXF 393
SNB-75 = test system: SNB-75
Hs-578T = test system: Hs-578T
T47D = test system: T47D
MDA-MB-435 = test system: MDA-MB-435
PC-3 = test system: PC-3
M14 = test system: M14
TK-10 = test system: TK-10
SR = test system: SR
MDA-N = test system: MDA-N
A498 = test system: A498
Malme-3M = test system: Malme-3M
DU-145 = test system: DU-145
BT-549 = test system: BT-549
MDA-MB-231 = test system: MDA-MB-231

Measured: GI50

CC1C(=O)C(C)C(c2cccs2)N(N=O)C1c1cccs1 (stereo not given)
inactive: DMS-273 > 100 µM | RPMI-8226 > 100 µM | HOP-62 > 100 µM | OVCAR-4 > 100 µM | NCI/ADR-RES > 100 µM | RXF 393 > 100 µM | SNB-75 28.1 µM

COC(=O)c1cc2c(cc1CC(Cc1ccc3c(c1)CCC3)C(=O)OC)CCC2 (stereo not given)
inactive: Hs-578T 66.2 µM | T47D 26.8 µM | RPMI-8226 16.5 µM | MDA-MB-435 31 µM | HOP-62 > 100 µM | PC-3 16.6 µM | OVCAR-4 24 µM | M14 72.8 µM | TK-10 88.5 µM | SR 11 µM | MDA-N 38 µM | NCI/ADR-RES 57.5 µM | A498 > 100 µM | RXF 393 18.1 µM | Malme-3M 41.3 µM | DU-145 83.8 µM | BT-549 > 100 µM | MDA-MB-231 70.6 µM | SNB-75 22.9 µM

CC(NC(=O)C(C)NC(=O)C(N)CCP(C)(=O)O)C(=O)O (stereo not given)
inactive: DMS-273 > 100 µM | RPMI-8226 > 100 µM | HOP-62 > 100 µM | OVCAR-4 > 100 µM | NCI/ADR-RES > 100 µM | A498 > 100 µM | RXF 393 > 100 µM | Malme-3M > 100 µM | SNB-75 > 100 µM

C=C1c2c(cc3c(c2O)c(=O)c2ccccc2n3C)OC1(C)C
inactive: DMS-273 > 100 µM | RPMI-8226 > 100 µM | M14 > 100 µM | TK-10 77.6 µM | A498 30.9 µM | Malme-3M > 100 µM | SNB-75 16.9 µM

COc1ccc(/C=C2\CCNC2=O)cc1
inactive: DMS-273 > 100 µM | RPMI-8226 > 100 µM | HOP-62 40.6 µM | OVCAR-4 > 100 µM | NCI/ADR-RES > 100 µM | A498 > 53.7 µM | Malme-3M > 100 µM | SNB-75 > 47.1 µM

c1c2c(cc(-n3nnc4c3CCCCCC4)c1-n1nnc3c1CCCCCC3)CCCCCC2
inactive: DMS-273 2.99 µM | HOP-62 17.8 µM | M14 13.7 µM | TK-10 12.6 µM | SR 3.54 µM | A498 10.4 µM | RXF 393 8.07 µM | SNB-75 12.7 µM

COc1ccccc1Cc1nc(-c2ccccc2)nn(C2OC(COC(C)=O)C(OC(C)=O)C(OC(C)=O)C2OC(C)=O)c1=S (stereo not given)
inactive: DMS-273 > 39.2 µM | RPMI-8226 21.8 µM | HOP-62 10.1 µM | OVCAR-4 3.31 µM | NCI/ADR-RES 9.1 µM | A498 10.2 µM | RXF 393 3.13 µM | Malme-3M 5.53 µM | SNB-75 3.08 µM

CCCCCCCCC(O)c1ccc(/C=C\C(O)CCCC(=O)O)s1 (stereo not given)
inactive: DMS-273 > 100 µM | RPMI-8226 > 100 µM | OVCAR-4 > 100 µM | M14 > 100 µM | TK-10 > 100 µM | SR > 100 µM | RXF 393 > 100 µM | Malme-3M > 100 µM | SNB-75 > 100 µM

O=C(O)c1cnc2c(ccc3ncc(C(=O)O)c(O)c32)c1O
inactive: Hs-578T > 100 µM | T47D > 100 µM | RPMI-8226 > 100 µM | MDA-MB-435 > 100 µM | HOP-62 > 100 µM | PC-3 > 100 µM | OVCAR-4 > 100 µM | M14 > 100 µM | TK-10 > 100 µM | SR > 100 µM | MDA-N > 100 µM | NCI/ADR-RES > 100 µM | A498 > 100 µM | RXF 393 > 100 µM | Malme-3M > 100 µM | DU-145 > 100 µM | BT-549 > 100 µM | MDA-MB-231 > 100 µM | SNB-75 34.8 µM

COC(=O)N/N=C(/CC1(O)C(=O)Nc2ccc([N+](=O)[O-])cc21)c1ccccc1 (stereo not given)
inactive: Hs-578T 20.8 µM | T47D 48.8 µM | DMS-273 67.8 µM | RPMI-8226 44.6 µM | MDA-MB-435 20.8 µM | HOP-62 31 µM | PC-3 38.8 µM | OVCAR-4 47.3 µM | M14 34 µM | TK-10 24.9 µM | SR 29.9 µM | MDA-N 39.4 µM | NCI/ADR-RES 21.8 µM | A498 14 µM | RXF 393 22 µM | Malme-3M 33 µM | DU-145 > 100 µM | BT-549 38.5 µM | MDA-MB-231 18.3 µM | SNB-75 23.9 µM
